Experimental data published in US11168087B2, “Substituted imidazo[1,2-b]pyridazines, substituted imidazo[1,5-b]pyridazines, related compounds, and their use in the treatment of medical disorders” (BIAL—R&D Investments, S.A., priority 2016, dated 2021).
Values after ≈ are worked out from the molar mass of the structure shown.

How the values were obtained:
[1] = Compound solubility in water; format: physicochemical
[2] = molecular target: T1, glucocerebrosidase (Gcase) (Homo sapiens, UniProt P04062); assay: Glucocerebrosidase (Gcase) activation assay, 4-methylumbelliferyl-beta-D-glucopyranoside substrate, with saposin C; format: biochemical; conditions: 0.25 h; for activation at 0.1 µM: read-out: Percent Gcase Activation 0.1 μM Test Compound; for activation at 1 µM: read-out: Percent Gcase Activation 1 μM Test Compound
T1 construct: micellar solution containing 10 nM GCase and 100 nM saposin C
T1 sequence (P04062 40-536): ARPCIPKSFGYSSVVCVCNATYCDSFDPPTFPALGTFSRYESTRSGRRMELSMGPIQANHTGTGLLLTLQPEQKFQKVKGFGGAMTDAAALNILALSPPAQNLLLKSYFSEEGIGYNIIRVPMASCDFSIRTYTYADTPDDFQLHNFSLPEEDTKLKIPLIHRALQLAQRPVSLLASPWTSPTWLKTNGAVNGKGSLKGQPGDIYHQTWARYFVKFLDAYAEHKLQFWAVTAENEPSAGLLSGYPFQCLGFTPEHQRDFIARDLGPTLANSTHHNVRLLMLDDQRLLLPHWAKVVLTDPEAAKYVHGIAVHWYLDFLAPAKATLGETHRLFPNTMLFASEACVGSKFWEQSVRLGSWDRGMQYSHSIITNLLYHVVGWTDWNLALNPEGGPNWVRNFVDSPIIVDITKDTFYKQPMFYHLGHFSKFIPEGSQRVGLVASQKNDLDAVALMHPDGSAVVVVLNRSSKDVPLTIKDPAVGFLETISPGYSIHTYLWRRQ
Summary of the method: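 Human GCase (10 nM) with 100 nM saposin C in Triton X-100/phosphatidylserine micelles, citrate-phosphate pH 4.7, preincubated with compound 30 min RT; 2 mM 4-MU-β-glucoside (substrate solution) added, 15 min RT, stopped with glycine pH 12.5, fluorescence 365/440 nm. Screened at 1.0 and 0.1 μM; 8-point curves from 5 μM top.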

Row | solubility [1] | activation at 0.1 µM [2] | activation at 1 µM [2] | SMILES
1 | 0.7 µg/mL (≈ 1.99 µM) | < 5% | 5 to 20% | Cc1cc(-c2cccnc2)nc2c(C(=O)NC(C)(C)C3CC3)nsc12
2 | – | > 20% | > 20% | Cc1cc(-c2cccc(F)c2C#N)nn2c(C(=O)N[C@@H](C)C3CC3)cnc12 [(S)-6-(2-Cyano-3-fluorophenyl)-N-(1-cyclopropylethyl)-8-methylimidazo[1,2-b]pyridazine-3-carboxamide]
3 | – | > 20% | > 20% | Cc1cc(-c2ccc(F)cc2)nn2c(C(=O)NC(C3CC3)C(F)(F)F)ncc12 (centres unmarked)
4 | – | > 20% | > 20% | Cc1cc(-c2cc(C)c3ncc(C(=O)N[C@H](C4CC4)C(F)(F)F)n3n2)sn1
5 | – | < 5% | 5 to 20% | CCC(NC(=O)c1cnc2cc(C)c(Cl)nn12)c1ccccc1 (centres unmarked)
6 | 23.1 µg/mL (≈ 62 µM) | 5 to 20% | > 20% | CCCCCCOC1CCC(NC(=O)c2ncc3c(C)cc(C)nn23)CC1 (centres unmarked)
